Where “and” joins values, the source holds several entries; their conditions need not be identical. Identical values can stand only once.
Key:
[1] = system: P2X1; set-up: method as in doi.org/10.1074/jbc.M114.592246; settings: reviewer comment; ref doi.org/10.1074/jbc.M114.592246; cited from earlier work
[2] = system: platelets; settings: ex vivo; cited from earlier work
[3] = system: thrombosis; settings: in vivo; cited from earlier work
[4] = target: T1, hP2X1 R139A (Homo sapiens, UniProt P51575, R139A); assay: NF449 inhibition dose response (IC50), TEVC in oocytes; format: cell-based
T1 construct: hP2X1 mRNA that was made from linearized full-length wild-type or mutant pcDNA 3.1x; expressed in transfected cells; host or cells: Xenopus laevis oocytes (mRNA injection)
T1 sequence (P51575 1-399 R139A): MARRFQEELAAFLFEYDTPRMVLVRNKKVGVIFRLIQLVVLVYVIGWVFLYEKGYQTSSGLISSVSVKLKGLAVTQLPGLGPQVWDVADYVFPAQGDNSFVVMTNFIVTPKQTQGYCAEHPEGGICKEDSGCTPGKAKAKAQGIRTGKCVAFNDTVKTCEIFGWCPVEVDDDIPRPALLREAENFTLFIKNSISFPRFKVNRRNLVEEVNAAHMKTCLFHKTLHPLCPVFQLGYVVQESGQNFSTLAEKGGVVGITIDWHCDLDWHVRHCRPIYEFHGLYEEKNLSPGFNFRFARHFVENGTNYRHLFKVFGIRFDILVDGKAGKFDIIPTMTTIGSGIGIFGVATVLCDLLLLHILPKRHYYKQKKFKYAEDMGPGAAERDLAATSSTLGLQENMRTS
Method: Oocytes were purchased defolliculated from Ecocyte Bioscience in Barth’s Solution (88 mM NaCl, 1 mM KCl, 0.82 mM MgSO4, 0.33 mM Ca(NO3)2, 0.41 mM CaCl2, 2.4 mM NaHCO3, 5 mM Tris-HCl) supplemented with penicillin (100 U/mL) and streptomycin (100 µg/mL). Xenopus laevis oocytes were then injected with 50 nL of 100 ng/μL hP2X1 mRNA that was made from linearized full-length wild-type or mutant pcDNA 3.1x according to the protocol provided in the mMessage mMachine kit (Invitrogen). Injected oocytes were allowed to express for ~20 hours at 18 °C before recording was performed.
Data acquisition was performed using the Oocyte Clamp OC-725C amplifier and pClamp 8.2 software. Buffers were applied using a gravity fed RSC-200 Rapid Solution Changer that flows at ~5 mL/min. All experiments use Sutter filamented glass 10 cm in length with an inner diameter of 0.69 mm and an outer diameter of 1.2 mm to impale oocytes and clamp the holding voltage at −60 mV. Experiments were recorded in buffer containing 10 mM HEPES (pH 7.4), 140 mM NaCl, 5 mM KCl, 2 mM CaCl2, 2 mM MgCl2, and 10 mM glucose.
To test a dilution series of an antagonist at discrete concentrations, 10 µM ATP (2 mM ATP for K309A only) was first applied to evoke an initial maximum current. The oocyte was then washed with buffer for one minute, followed by one minute application of an antagonist test-concentration, and concluded by co-application of the same test concentration with 10 µM ATP (2 mM ATP for K309A). The antagonized signal was then normalized against the initial ATP excitatory signal. Each test concentration was performed in triplicate across different oocytes. The data was then fit to a nonlinear regression named “[inhibitor] vs. response – Variable slope (four parameters)” in Prism 9 to produce a sigmoidal curve and afford an IC50 value. Each singular condition was used to generate an average which is reported plus or minus its standard deviation between three discrete trials.

[5] = system: P2X3; set-up: method as in doi: 10.1111/bph.15299; settings: reviewer comment, ref doi: 10.1111/bph.15299, read-out: EC50 of ATP; cited from earlier work
[6] = system: P2X1; set-up: method as in doi: 10.1111/bph.15299; settings: reviewer comment, ref doi: 10.1111/bph.15299, read-out: EC50 of ATP; cited from earlier work

Row | SMILES | Hill coefficient [1] | effect on platelet activation [2] | effect on thrombosis [3] | Normalized Current ([4]; [NF449] 1.600E-09 M) | Normalized Current ([4]; [NF449] 2.000E-07 M) | Normalized Current ([4]; [NF449] 3.200E-10 M) | Normalized Current ([4]; [NF449] 4.000E-08 M) | Normalized Current ([4]; [NF449] 5.000E-06 M) | Normalized Current ([4]; [NF449] 8.000E-09 M) | EC50 [5] [nM] | EC50 [6] [nM]
1 | O=C(Nc1cc(C(=O)Nc2ccc(S(=O)(=O)O)cc2S(=O)(=O)O)cc(C(=O)Nc2ccc(S(=O)(=O)O)cc2S(=O)(=O)O)c1)Nc1cc(C(=O)Nc2ccc(S(=O)(=O)O)cc2S(=O)(=O)O)cc(C(=O)Nc2ccc(S(=O)(=O)O)cc2S(=O)(=O)O)c1 [NF449, 4,4’,4”,4’’’-(carbonylbis(imino-5,1,3-benzenetriylbis(carbonylimino)))tetrakis-benzene-1,3-disulfonic acid] | ~ 1.4 | inhibitory effect | inhibitory effect | 0.9525 and 0.8503 and 0.8408 | 0.2675 and 0.1529 | 1.089 and 0.9841 and 0.9268 | 0.6975 and 0.6688 and 0.5159 | 0.000000 | 0.8121 and 0.8025 and 0.7834 |  | 
2 | Nc1ncnc2c1ncn2[C@@H]1O[C@H](COP(=O)(O)OP(=O)(O)OP(=O)(O)O)[C@@H](O)[C@H]1O [ATP] |  |  |  |  |  |  |  |  |  | 500 to 1000 | 500 to 1000

From PMC11448502, “Cryo-EM structures of the human P2X1 receptor reveal subtype-specific architecture and antagonism by supramolecular ligand-binding” (Nature Communications, 2024)
